Source: patent publication US8329413B2, “Glycoproteomic probes for fluorescent imaging of fucosylated glycans in vivo” (Academia Sinica, priority 2007, dated 2012)
Where a name gives a salt, the structure may show the parent alone.

Assays:
Jurkat cells = test: Fluorescent labeling at the cell surface by flow cytometry; type: cell-based
Excerpt: In another aspect, the disclosure provides a method of labeling of azide-tagged glycoconjugates expressed on the cell surface by using the alkyne click-activated fluorogenic probe 1a. First, the effect of various Cu(I) sources on the copper-catalyzed cell-surface labeling reaction was investigated. Cu(I) is typically generated including in situ by the reduction of Cu(II) by conventional reducing agents or the direct addition of Cu(I) as a salt. To label azido tagged glycoconjugates (in this case, cellular glycans that had incorporated azidofucose), we investigated both methods by using in situ Cu(II) reduction with ascorbic acid and Tris(carboxyethyl)phosphine (TCEP) and direct addition of Cu(I), via CuBr, in CuAAC reactions. Jurkat cells were cultured in the presence of globally acetylated 6-azido-L-fucose 12 (acetylation increases cellular uptake of the sugar) so that they will incorporate the analog via the salvage pathway. After incubating for 3 days, the cells were labeled with 1a in the presence of the above listed Cu(I) sources, and the fluorescent intensities were measured by flow cytometry. […]
Jurkat cells were cultured in RPMI medium 1640 (Invitrogen, Carlsbad, Calif.), supplemented with 10% FCS and peracetylated fucose 11 or azidofucose 12 (200 μM) at a density of 2×10^5 cells per ml for 3 days, in the presence or absence of tunicamycin (5 μg/ml). […] The fluorescence intensity was detected and acquired by BD LSR II (BD Biosciences, San Jose, Calif.) and FACSDiva software (BD Biosciences). […] For detection of the fluorescent adduct with probe 1a, a 351-nm UV laser was used for excitation, and emission was detected by a 440/40 band-pass filter.
Jurkat cells were cultured in RPMI 1640 (Invitrogen, Carlsbad, Calif.) supplemented with 10% FCS and peracetylated fucose 11 or azidofucose 12 ([…]) at the density of 2×10^5 cells/mL for 3 days, in the presence or absence of tunicamycin ([…]). […] The fluorescence intensity was detected and acquired by BD LSR II (BD Biosciences, San Jose, Calif.) and FACSDiva software (BD Biosciences). […]

[1] = Rapid screening of L-amino acids as cycloaddition ligand catalysts using fluorogenic probe 1a; details: L-amino acid 1.0 mM, CuSO4 1.0 mM, 1a + 2a
Method: A fluorescence quenching technique was used to identify catalysts for the copper-catalyzed cycloaddition. […] In such a screen, the reaction between 1a and 2a is performed in microtiter plates in the presence of individual amino acids. […] (Upper) The microtiter plate was visualized under long wavelength UV lamp (365 nm). (Lower) The fluorescent intensities of each well are measured by a fluorescence plate reader.
The effect of the ligand effect on the reaction rate was visualized by holding the 96-well microtiter plate under a long wavelength UV lamp (365 nm) and analyzed with a standard fluorescence multiplate reader.
The overall volume in each vial was 250 microliters containing a solution of 1,8-naphthalimide 1a (0.5 mM), azidofucose 2a (1.0 mM), CuSO4 (1.0 mM), L-amino acid (1.0 mM) and sodium ascorbate (5.0 mM) in DMSO/water (56% DMSO). The reactions were allowed to stand at room temperature for 24 hours. The reaction mixture was diluted 60 times with 50 mM HEPES buffer (pH 7.2) and then transferred to 96-well microtiter plate, and fluorescence intensity (excitation, 365 nm; emission, […]) was determined with a Fusion plate reader (Perkin Elmer/Packard).

Hep 3B = test: Fluorescence microscopy imaging of intracellular fucosylated glycoconjugates; type: cell-based, human
Method: The human hepatoma cell line, Hep 3B, was incubated with acetylated azidofucose 12. After 3 days, the cells were fixed, washed with PBS, and then stained with 1a for visualization. […] The labeling reaction was performed in the presence of Cu(I) after the treatment with control fucose (A) or azidofucose 12 (B), or in the absence of Cu(I) after the treatment with control fucose (C) or azidofucose 12 (D). (Scale bar: 20 μm.)
In another aspect of the disclosure, double-staining experiments were performed to find out whether the punctate pattern observed from azidofucose marks specific cellular compartments. […] Azidofucose treated cells were fixed and labeled with probe 1a and then further treated with WGA lectin conjugated with Alexa Fluor 594, and the cells were imaged with confocal fluorescence microscope, using the appropriate filter sets. […] (Scale bar: 20 μm.)
The human hepatocellular carcinoma cell line, Hep3B (American Type Culture Collection, Manassas, Va.), was cultured in Opti-MEM (Invitrogen) supplemented with 0.1% FCS and treated with natural fucose or peracetylated azidofucose 12 (200 μM) for 3 days. The cells then were transferred to a coverslip glass slide and cultured overnight in the same medium. […] After labeling, cells were washed with PBS, and fluorescence images were obtained by using Axiovert 200M (Carl Zeiss, Inc., Thornwood, N.Y.). […]

[2] = system: human alpha1-acid glycoprotein (AGP); test: Fluorescent labeling of AGP fucosylated by FucT V, SDS/PAGE visualized by UV light; type: biochemical; details: AGP fucosylated with FucT V and GDP-fucose analog 8, 9 or 10, then labeled with 1a or 1b
Excerpt: Briefly, fucose analogs 4 and 5 are converted to the corresponding 1-bromides, which then are substituted directly by a phosphate group. […] Therefore, TiBr4 is used instead, as described by Srivastava. The fucose-1-phosphates are converted to the corresponding GDP-fucose analogs by using 1H-tetrazole as a catalyst. The tolerability of GDP-fucose analogs 8 and 9 for human alpha-1,3-fucosyltranseferases (FucTs) II-VII is confirmed by using a standard microtiter plate assay. They are then used to elaborate the glycoconjugate substrate, human alpha1-acid glycoprotein (AGP), an acute-phase protein. As fucosylation of AGP is associated with inflammatory diseases, the degree of fucosylation of AGP could be a potential diagnostic or prognostic marker. AGP was fucosylated by using FucT V in the presence of GDP-fucose analogs 8 or 9. After gel filtration, the fucosylated AGP is labeled by using the corresponding naphthalimide 1a or 1b for 4 h at room temperature. Labeled protein is analyzed by SDS/PAGE and visualized by UV light (365 nm). […] Treated protein was separated by SDS/PAGE and visualized by UV light (Top) and Coomassie blue staining (CBB) (Middle). (Bottom) Modified GDP-fucose.
Human alpha1-acid glycoprotein (0.33 mg/mL), pretreated with alpha-fucosidase, was incubated with human alpha-1,3-fucosyltransferase V (100 mU/mL) in MOPS buffer (50 mM, pH 7.2) containing 150 mM NaCl, 10 mM MnCl2, 4 mM ATP, 0.2 mM GDP-fucose analog (8-10). After incubation at 37° C. for 8 h, additional GDP-fucose derivative (final 0.4 mM) was added and the reaction mixture was incubated at 37° C. for 12 h. […]
The fucosylated glycoconjugate was dissolved in HEPES buffer (50 mM, pH 7.6), and added to a solution containing CuSO4 (0.2 mM), 1.0 mM sodium ascorbate, the tris(triazolyl)amine ligand (20) (0.2 mM, stock in DMSO), and the appropriate naphthalimide ligation probe 1a or 1b (0.1 mM, stock in DMSO, final concentration of DMSO; 10%)). After 1 h at room temperature, the mixture was passed through NAP-5 column in water and lyophilized, and analyzed by SDS-PAGE.

[3] = cited from earlier work
[4] = Stoichiometric study of L-histidine in the cycloaddition of 1a and 2a; details: relative to copper ion; L-histidine 0-3.0 mM, CuSO4 1.0 mM
Method: The overall volume in each vial was 250 microliters containing a solution of 1,8-naphthalimide 1a (0.5 mM), azidofucose 2a (1.0 mM), CUSO4 (1.0 mM), L-histidine (0-3.0 mM) and sodium ascorbate (5.0 mM) in DMSO/water (56% DMSO). The reactions were allowed to stand at room temperature for 24 hours. The catalytic activity was determined by the same method described above (FIG. 10).
In this condition, 60% of 1a was converted to the product 10 after 1 h at room temperature and the reaction was completed in less than 6 h. To confirm the effects of L-His on the reaction, we measured the time-course of the reaction by fluorescence spectrometer. Conditions: 1,8-naphthalimide 1a (0.1 mM), azidofucose 2a (1.0 mM), CuSO4 (2.0 mM), L-histidine (0 or 4.0 mM) and sodium ascorbate (100 mM) in 50 mM HEPES buffer (containing 6% DMSO). After mixing all reagents, the fluorescence intensity was measured in 5 min intervals at 37° C. by a fluorescence spectrophotometer (FIG. 11). […] Fluorescence intensities were monitored at λ ex 357 nm and λem 462 nm.

For tunicamycin, the “effect on cell surface fluorescence” value (Jurkat cells; Jurkat cells co-treated with azidofucose, labeled with 1a) was “suppressed cell surface fluorescence”.
For N[C@@H](CCC(=O)O)C(=O)O [glutamic acid], the “effect on cycloaddition reaction” value [1] was “obstructive to the reaction”.
In the case of N[C@@H](Cc1c[nH]c2ccccc12)C(=O)O [tryptophan], the “enhancement of cycloaddition rates” value ([1]; 24 h room temperature) is reported as “approximately 2 fold”.
In the case of CC(=O)OC1O[C@@H](CN=[N+]=[N-])[C@@H](OC(C)=O)[C@@H](OC(C)=O)[C@@H]1OC(C)=O (stereo partly shown) [Compound 12], the “labeling pattern after staining with 1a vs control fucose” value (Hep 3B; Hep 3B, 3 days, fixed cells, Cu(I)) is reported as “distinct punctate-labeling pattern”, the “co-localization with Alexa Fluor 594-conjugated WGA lectin (Golgi marker)” value (Hep 3B; fixed cells labeled with probe 1a, confocal microscopy) is reported as “overlapped perfectly” and the “cell fluorescence after CuAAC labeling with 1a vs natural fucose” value (Jurkat cells; Jurkat cells, 3 days, all three copper sources, flow cytometry) is reported as “distinct increase in fluorescence”. For the same compound, the “fluorescent signal after labeling with biotinylated alkyne 13 and avidin-fluorescein vs fucose” value (Jurkat cells; Jurkat cells, flow cytometry) was “distinct increase in fluorescent signal”.
With C[C@@H]1O[C@H](OP(=O)(O)OP(=O)(O)OC[C@H]2O[C@@H](n3cnc4c(=O)[nH]c(N)nc43)[C@H](O)[C@@H]2O)[C@@H](O)[C@H](O)[C@@H]1O [Compound 10, GDP-fucose] the “fluorescent band of labeled AGP on SDS/PAGE under UV light (365 nm)” value [2] was “No band was present”.
In the case of C=C[C@H]1C[N@@]2CC[C@H]1C[C@H]2[C@H](O)c1ccnc2ccc(OC)cc12 [Quinine sulfate], the “quantum yield of fluorescent standard” value ([3]; standard value) is given as 0.54.
For N[C@@H](CS)C(=O)O [cysteine], the “effect on cycloaddition reaction” value [1] was “obstructive to the reaction”.
With N[C@@H](Cc1c[nH]cn1)C(=O)O [Histidine, histidine] the “enhancement of reaction rate compared to ligand-free conditions” value ([1]; 24 h room temperature) was “about 6 times” and the “amount of ligand giving maximum effect on the catalysis” value [4] was 2.0 mol equivalent.
With NCCCC[C@H](N)C(=O)O [lysine] the “effect on cycloaddition reaction” value [1] was “obstructive to the reaction”.
With N[C@@H](Cc1ccc(O)cc1)C(=O)O [tyrosine] the “enhancement of cycloaddition rates” value ([1]; 24 h room temperature) was “approximately 2 fold”.
For C#Cc1ccc2c3c(cccc13)C(=O)N(CC)C2=O [Compound 1a, 4-Ethynyl-N-ethyl-1,8-naphthalimide], the “fluorescent band of labeled AGP on SDS/PAGE under UV light (365 nm)” value [2] was “clear fluorescent bands”.
For Nc1ccc2c3c(cccc13)C(=O)NC2=O [4-amino-1,8-naphthalimide], the “emission λmax” value ([3]; long wavelength emission, basis of probe design) is listed as 540-550 nm.
